Experimental data: paper PMC11031313 (Cell chemical biology, 2024)

Assays:
[1] = biological target: SIV Nef mac239 (Simian immunodeficiency virus, UniProt Q5QGG3); assay: SPR binding to SIV Nef mac239
[2] = biological target: M-group HIV-1 Nef variants; assay: SPR binding to M-group HIV-1 Nef variants; conditions: HIV-1 Nef proteins
[3] = biological target: thalidomide-binding domain of CRBN (Homo sapiens, UniProt Q96SW2); assay: SPR binding to CRBN thalidomide-binding domain; conditions: 90 s association, 180 s dissociation
[4] = biological target: Nef (NL4-3 variant) and CRBN thalidomide-binding domain (UniProt P03406+Q96SW2, A33V/T15A/T51N/V11I); assay: PROTAC-mediated ternary complex formation in vitro; conditions: 25 μM of each protein, 5-, 10- or 20-fold molar excess of PROTAC
[5] = biological target: HIV-1 Nef (NL4-3 variant) (Human immunodeficiency virus type 1, UniProt Q90VU7); assay: SPR binding to HIV-1 Nef; conditions: for binding kinetics with Nef (in words): SPR, 90 s association, 180 s dissociation
[6] = biological target: Nef-eGFP fusion protein (UniProt P03406+Q96SW2); assay: Nef-eGFP protein loss in CEM/Nef-eGFP cells by flow cytometry; format: cell-based, HIV-1; conditions: 3 μM, 24 h
[7] = test system: Nef-mediated MHC-I downregulation; assay: Rescue of cell-surface MHC-I in Dox-induced CEM/Nef-eGFP T cells; format: cell-based, human; conditions: 3 μM, 24 h
[8] = test system: Nef-mediated CD4 downregulation; assay: Rescue of cell-surface CD4 in Dox-induced CEM/Nef-eGFP T cells; format: cell-based, human; conditions: 3 μM, 24 h
[9] = biological target: HIV-1 Nef (SF2 variant) (Human immunodeficiency virus type 1 group M subtype B, UniProt P03407); format: cell-based; conditions: 293T cells, PROTAC 10 μM, 24 h
[10] = test system: HIV-1NL4-3; assay: HIV-1 infectivity assay in TZM-bl reporter cells; format: cell-based; conditions: Human immunodeficiency virus 1, TZM-bl, 48 h, read-out: IC50, HIV-1 infectivity
[11] = biological target: IKZF1 (Ikaros) (Homo sapiens, UniProt Q13422); assay: IKZF1 protein level in CEM/Nef-eGFP T cells; format: cell-based; conditions: CEM/Nef-eGFP cells after Dox induction
[12] = test system: TZM-bl cells; assay: Viability of uninfected TZM-bl cells; format: cell-based, human
[13] = test system: HIV-1NL4-3; assay: HIV-1 replication in donor PBMCs; format: cell-based; conditions: 1 μM, 4 days
[14] = test system: uninfected PBMCs; assay: Viability of uninfected PBMCs; format: cell-based, human; conditions: 1 μM, 4 days

Sequence of Nef (NL4-3 variant) and CRBN thalidomide-binding domain (Q96SW2 317-425, other chains not shown): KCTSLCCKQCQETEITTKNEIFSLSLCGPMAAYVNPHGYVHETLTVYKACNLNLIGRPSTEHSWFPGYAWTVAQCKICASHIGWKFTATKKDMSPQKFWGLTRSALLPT
Sequence of Nef-eGFP fusion protein (Q16531 whole entry, other chains not shown, the tested form may be a part): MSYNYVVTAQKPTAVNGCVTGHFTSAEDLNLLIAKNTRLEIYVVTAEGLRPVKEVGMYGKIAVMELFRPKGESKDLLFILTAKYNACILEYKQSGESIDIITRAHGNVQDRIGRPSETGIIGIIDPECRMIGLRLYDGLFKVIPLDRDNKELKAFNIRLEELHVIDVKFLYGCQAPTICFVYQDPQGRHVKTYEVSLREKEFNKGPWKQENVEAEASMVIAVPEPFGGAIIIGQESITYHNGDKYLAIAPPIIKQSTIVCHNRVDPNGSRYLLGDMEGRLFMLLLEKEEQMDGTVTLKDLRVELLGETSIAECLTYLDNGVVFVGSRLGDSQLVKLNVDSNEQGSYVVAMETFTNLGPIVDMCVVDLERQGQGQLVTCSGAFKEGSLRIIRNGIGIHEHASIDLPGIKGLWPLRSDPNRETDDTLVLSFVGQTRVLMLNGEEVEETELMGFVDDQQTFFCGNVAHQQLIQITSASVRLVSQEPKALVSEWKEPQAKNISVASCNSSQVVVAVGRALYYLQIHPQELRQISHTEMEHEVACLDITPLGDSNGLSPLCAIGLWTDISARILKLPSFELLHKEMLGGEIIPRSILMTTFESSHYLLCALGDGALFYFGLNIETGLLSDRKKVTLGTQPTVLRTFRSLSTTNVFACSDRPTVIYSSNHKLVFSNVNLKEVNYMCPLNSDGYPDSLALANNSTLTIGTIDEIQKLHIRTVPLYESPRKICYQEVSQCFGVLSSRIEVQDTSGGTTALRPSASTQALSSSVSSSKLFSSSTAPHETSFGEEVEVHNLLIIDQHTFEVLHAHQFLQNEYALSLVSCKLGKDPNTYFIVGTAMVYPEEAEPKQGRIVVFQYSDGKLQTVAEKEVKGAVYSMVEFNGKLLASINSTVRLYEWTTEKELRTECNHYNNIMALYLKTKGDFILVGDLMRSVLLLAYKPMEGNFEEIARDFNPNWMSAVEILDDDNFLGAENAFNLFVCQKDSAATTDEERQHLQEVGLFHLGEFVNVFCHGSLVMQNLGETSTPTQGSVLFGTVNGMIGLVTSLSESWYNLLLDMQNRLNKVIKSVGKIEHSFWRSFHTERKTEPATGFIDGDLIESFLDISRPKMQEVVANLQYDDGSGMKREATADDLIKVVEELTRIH
Sequence of Nef-eGFP fusion protein (Q96SW2 whole entry, other chains not shown, the tested form may be a part): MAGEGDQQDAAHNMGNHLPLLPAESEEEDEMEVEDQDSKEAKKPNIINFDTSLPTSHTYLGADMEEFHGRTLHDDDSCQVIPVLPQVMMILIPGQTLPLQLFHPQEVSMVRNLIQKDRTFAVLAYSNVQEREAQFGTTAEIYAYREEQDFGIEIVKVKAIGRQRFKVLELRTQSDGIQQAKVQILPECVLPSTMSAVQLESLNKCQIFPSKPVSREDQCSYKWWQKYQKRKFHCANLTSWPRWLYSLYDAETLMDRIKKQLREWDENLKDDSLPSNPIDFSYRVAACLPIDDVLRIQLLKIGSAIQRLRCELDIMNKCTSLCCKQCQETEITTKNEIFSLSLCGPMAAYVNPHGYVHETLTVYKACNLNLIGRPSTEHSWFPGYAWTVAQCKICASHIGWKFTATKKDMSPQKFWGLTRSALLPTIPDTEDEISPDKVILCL
Sequence of thalidomide-binding domain of CRBN (Q96SW2 317-425): as the sequence (Q96SW2 317-425, other chains not shown) above
Sequence of IKZF1 (Ikaros) (Q13422 whole entry): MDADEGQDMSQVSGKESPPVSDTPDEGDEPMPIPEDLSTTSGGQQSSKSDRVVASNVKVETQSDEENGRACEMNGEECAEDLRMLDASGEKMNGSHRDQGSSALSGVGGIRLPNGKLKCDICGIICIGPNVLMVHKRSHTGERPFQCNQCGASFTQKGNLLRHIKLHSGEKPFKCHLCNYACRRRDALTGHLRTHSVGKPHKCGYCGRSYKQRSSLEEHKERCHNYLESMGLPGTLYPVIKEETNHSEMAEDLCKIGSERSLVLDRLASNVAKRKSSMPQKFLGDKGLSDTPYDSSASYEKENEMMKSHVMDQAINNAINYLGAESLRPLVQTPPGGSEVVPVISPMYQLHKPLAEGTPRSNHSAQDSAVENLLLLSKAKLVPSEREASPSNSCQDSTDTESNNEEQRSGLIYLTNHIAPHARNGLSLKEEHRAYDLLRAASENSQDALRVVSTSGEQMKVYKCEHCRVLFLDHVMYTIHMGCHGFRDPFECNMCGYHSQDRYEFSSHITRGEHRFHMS

Molecule `O=C1CCC(N2Cc3c(OCC(=O)N4CCC(c5nn(-c6nc7cc(Cl)ccc7[nH]6)c(O)c5CCc5ccc(F)cc5)CC4)cccc3C2=O)C(=O)N1` (centres unmarked) [FC-14367, 3-[4-(2-{4-[1-(5-chloro-1H-1,3-benzodiazol-2-yl)-4-[2-(4-fluorophenyl)ethyl]-5-hydroxy-1H-pyrazol-3-yl]piperidin-1-yl}-2-oxoethoxy)-1-oxo-2,3-dihydro-1H-isoindol-2-yl]piperidine-2,6-dione] has a Kd [1] of under 1000 nM and a Kd [2] of under 1000 nM.

`O=C(COc1cccc2c1CN(C1CCC(=O)NC1=O)C2=O)NCCOCCOCCOCc1ccc(-c2nn(-c3nc4cc(Cl)ccc4[nH]3)c(O)c2CCc2ccc(F)cc2)cc1` (centres unmarked) [FC-12988, N-(2-{2-[2-({4-[1-(5-chloro-1H-1,3-benzodiazol-2-yl)-4-[2-(4-fluorophenyl)ethyl]-5-hydroxy-1H-pyrazol-3-yl]phenyl}methoxy)ethoxy]ethoxy}ethyl)-2-{[2-(2,6-dioxopiperidin-3-yl)-1-oxo-2,3-dihydro-1H-isoindol-4-yl]oxy}acetamide] was tested, and the “binding kinetics with CRBN thalidomide-binding domain (in words)” value [3] was “associated more slowly than FC-13182 and showed a comparatively slow dissociation phase”, the “ternary complex formation (in words)” value [4] was “induce ternary complexes of Nef with CRBN” and the “binding kinetics with Nef (in words)” value [5] was “more rapid association and release compared to FC-13182”. For the same molecule, the “Nef-eGFP protein loss / Nef degradation (in words)” value [6] was “effectively induced Nef degradation”, the “cell-surface MHC-I rescue (in words)” value [7] was “restored CD4 and MHC-I expression” and the “cell-surface CD4 rescue (in words)” value [8] was “restored CD4 and MHC-I expression”.

For `CN(CCNC(=O)COCCOc1ccc(CCc2c(-c3ccc(C(F)(F)F)cc3)nn(-c3nc4cc(Cl)ccc4[nH]3)c2O)cc1)c1cccc2c1C(=O)N(C1CCC(=O)NC1=O)C2=O` (centres unmarked) [FC-13887, 2-[2-(4-{2-[1-(5-chloro-1H-1,3-benzodiazol-2-yl)-5-hydroxy-3-[4-(trifluoromethyl)phenyl]-1H-pyrazol-4-yl]ethyl}phenoxy)ethoxy]-N-(2-{[2-(2,6-dioxopiperidin-3-yl)-1,3-dioxo-2,3-dihydro-1H-isoindol-4-yl](methyl)amino}ethyl)acetamide], the “ternary complex formation (in words)” value [4] was “induce ternary complexes of Nef with CRBN”, the “induction of Nef ubiquitylation (in words)” value [9] was “active” and the “z-score of normalized BRET ratio (Nef ubiquitylation)” value [9] was 1.3.

`O=C(COc1ccc(CCc2c(-c3ccc(C(F)(F)F)cc3)nn(-c3nc4cc(Cl)ccc4[nH]3)c2O)cc1)NCCNc1cccc2c1C(=O)N(C1CCC(=O)NC1=O)C2=O` (centres unmarked) [FC-14369, 2-(4-{2-[1-(5-chloro-1H-1,3-benzodiazol-2-yl)-5-hydroxy-3-[4-(trifluoromethyl)phenyl]-1H-pyrazol-4-yl]ethyl}phenoxy)-N-(2-{[2-(2,6-dioxopiperidin-3-yl)-1,3-dioxo-2,3-dihydro-1H-isoindol-4-yl]amino}ethyl)acetamide] was tested, and the “induction of Nef ubiquitylation (in words)” value [9] was “active”, the Kd [5] was 6.5 nM and the “binding kinetics with Nef (in words)” value [5] was “delayed dissociation”. For the same molecule, the “Nef-eGFP protein loss / Nef degradation (in words)” value [6] was “parallel loss in Nef expression”, the IC50 [10] was about 250 nM and the “effect on the protein level of IKZF1” value [11] was “reduced the expression of IKZF1”. The Kd [1] was under 1000 nM, the Kd [2] was under 1000 nM and the “cytotoxicity (in words)” value [12] was “without cytotoxicity”.

`O=C(COCCOCCOCCCc1ccc(-c2nn(-c3nc4cc(Cl)ccc4[nH]3)c(O)c2CCc2ccc(F)cc2)cc1)NCCNc1cccc2c1C(=O)N(C1CCC(=O)NC1=O)C2=O` (centres unmarked) [FC-13818, 2-{2-[2-(3-{4-[1-(5-chloro-1H-1,3-benzodiazol-2-yl)-4-[2-(4-fluorophenyl)ethyl]-5-hydroxy-1H-pyrazol-3-yl]phenyl}propoxy)ethoxy]ethoxy}-N-(2-{[2-(2,6-dioxopiperidin-3-yl)-1,3-dioxo-2,3-dihydro-1H-isoindol-4-yl]amino}ethyl)acetamide] was tested, and the “ternary complex formation (in words)” value [4] was “induce ternary complexes of Nef with CRBN”, the “HIV-1 replication (in words)” value [13] was “reduced HIV-1 replication below the level of the ΔNef mutant” and the reduction of viability [14] was 20%.

`O=C(COCCOc1ccc(CCc2c(-c3ccc(C(F)(F)F)cc3)nn(-c3nc4cc(Cl)ccc4[nH]3)c2O)cc1)NCCNc1cccc2c1C(=O)N(C1CCC(=O)NC1=O)C2=O` (centres unmarked) [FC-13182, 2-[2-(4-{2-[1-(5-chloro-1H-1,3-benzodiazol-2-yl)-5-hydroxy-3-[4-(trifluoromethyl)phenyl]-1H-pyrazol-4-yl]ethyl}phenoxy)ethoxy]-N-(2-{[2-(2,6-dioxopiperidin-3-yl)-1,3-dioxo-2,3-dihydro-1H-isoindol-4-yl]amino}ethyl)acetamide] was tested, and the “Nef-eGFP protein loss / Nef degradation (in words)” value [6] was “effectively induced Nef degradation”, the “cell-surface MHC-I rescue (in words)” value [7] was “restored CD4 and MHC-I expression” and the “cell-surface CD4 rescue (in words)” value [8] was “restored CD4 and MHC-I expression”.
